The subject of assay [1] is Col1a1. Put plainly: Col1a1 mRNA level decreased by UV irradiation, RT-PCR in fibroblasts. The settings on record: NIH3T3 cells, 8 J/cm^2 UVA, peptide 1, 10, 50 μM, 6 hours after irradiation; FIGS. 5A, 5B. Type of assay: cell-based, mouse. The procedure: The expression of genes related to extracellular matrix components is inhibited when irradiated with UV.
First, NIH3T3 cells were seeded in a 6-well plate at a cell density of 5×10^5 cell/well, and then the cells were cultured in DMEM medium containing 10% fetal bovine serum (FBS) for 24 hours. The cultured cells were washed once with serum free DMEM medium, and then the peptide of the present invention was mixed in 1 mL of the serum free DMEM medium at each of concentrations of 1, 10, and 50 μM, and dispensed into the cells. A positive control (PC) was treated with 50 μM of Quercetin instead of the above peptide. The cells were cultured in a CO2 incubator at 37° C. for 1 hour.
The medium of the cultured cells was transferred to a tube (e-tube), 1 ml of PBS was added, and irradiation was performed with 8 J/cm^2 of UVA using a UV irradiator (VILBER LOURMAT, Cat No.: 3102-BSU, France). After removing PBS, 900 μL of the medium transferred to the tube was dispensed, and culture was performed in a CO2 incubator at 37° C. for 6 hours. The cultured cells were washed twice with PBS, and then RNA was extracted from the cells using easy blue (iNtRON, Cat. No.: 17061, Korea). The amount of RNA extracted was quantified, 1,000 ng of RNA was added per tube, and RT reaction was performed using a kit (enzynomics, Cat. No.: RT200, Korea). […]

Assay [2] relates to SIRT1. Kind of assay: SIRT1 mRNA level by RT-PCR in keratinocytes. Type of assay: cell-based, human. The settings on record: HaCaT cells, peptide 1, 10, 50 μM, 24 hours; FIGS. 3A, 3B. The procedure:
First, HaCaT cells were seeded in a 6-well plate at a cell density of 3×10^5 cell/well, and then the cells were cultured in DMEM medium containing 10% fetal bovine serum (FBS) for 24 hours. The cultured cells were washed once with serum free DMEM medium, and then the peptide of the present invention was mixed in 1 mL of the serum free DMEM medium at each of concentrations of 1, 10, and 50 μM, and dispensed into the cells. A positive control (PC) was treated with 100 nM of EGF instead of the above peptide. The cells were cultured in a CO2 incubator at 37° C. for 24 hours.
The cultured cells were washed twice with PBS, and then RNA was extracted from the cells using easy blue (iNtRON, Cat. No.: 17061, Korea). The extracted RNA was subjected to RT reaction using a kit (enzynomics, Cat. No.: RT200, Korea). Thereafter, RT-PCR was performed using a PCR kit (enzynomics, Cat. No.: R581T, Korea). The sequences of the primers of AQP3 and SIRT1 used in RT-PCR and the sequence of the primer of GAPDH used to compare the total RNA amount of each treatment group are shown in [Table 2].

The test system of assay [3] is MMP-1. Put plainly: MMP-1 protein expression increased by UV irradiation, western blot in keratinocytes. It counts as cell-based, human. To be noted: HaCaT cells, 15 mJ/cm^2 UVB, peptide 1, 10, 50 μM, 24 hours after irradiation; FIG. 6B. The procedure:
The expression of MMP-1 encoding proteins related to collagen degradation increases by ultraviolet irradiation. Therefore, it was confirmed whether the expression of the MMP-1 protein was inhibited again and the cell aging phenomenon was inhibited when treated with the peptide of the present invention.
First, NIH3T3 cells and HaCaT cells were seeded in a 6-well plate at a cell density of 5×10^5 cell/well, respectively, and then the cells were cultured in DMEM medium containing 10% fetal bovine serum (FBS) for 24 hours. The cultured cells were washed once with serum free DMEM medium, and the peptide of the present invention was mixed in 1 mL of the serum free DMEM medium at each of concentrations of 1, 10, and 50 μM, and dispensed into the cells. A positive control (PC) was treated with 2.5 mM of N-Acetylcysteine (NaC) instead of the above peptide.
The cells were cultured in a CO2 incubator at 37° C. for 1 hour. The medium of the cultured cells was transferred to a tube (e-tube), 1 ml of PBS was added, and then the NIH3T3 cells were irradiated with 6 J/cm^2 of UVA and the HaCaT cells were irradiated with 15 mJ/cm^2 of UVB using a UV irradiator (VILBER LOURMAT, Cat No.: 3102-BSU, France). After removing PBS, 900 μL of the medium transferred to the tube was added, and culture was performed in a CO2 incubator at 37° C. for 24 hours. […]
On the technique in general: Immunoblotting shows a protein as a band on a membrane.

Regarding LCACCLHNCNECQ, the “mRNA level of Col1a1 decreased by UV irradiation” value in assay [1] is “increased again”. For the same sequence, the “mRNA level of SIRT1” value in assay [2] is given as “increased”. In assay [3], the “expression of MMP-1 increased by UV irradiation” value was “inhibited”.

The values are drawn from US20240407993A1, “PEPTIDE HAVING ANTI-AGING ACTIVITY, AND USE THEREOF” (CAREGEN CO., LTD., priority 2021, published 2024).
